Patent US20240174641A1, “HETEROCYCLIC COMPOUNDS CAPABLE OF […]” (Boehringer Ingelheim International GmbH, priority 2022, published 2024)

What was measured:
dog STING (dSTING) = experiment: Dog differential scanning fluorimetry (DSF) assay, thermal shift of dog STING protein; type: binding; settings: DSF (dDSF); 100 μM compound, 3 μM dog STING protein; Tm with ligand minus Tm of protein alone
Method in brief: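 Dog STING residues 149–375, His-tag removed by TEV, tested at 3 μM with 100 μM compound, 5× SYPRO Orange and 2% DMSO in 20 mM Tris, 150 mM NaCl, pH 7.5. Heated 15–95 °C in 0.5 °C steps. Tm from Boltzmann fit, duplicates averaged; ΔTm relative to protein alone.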

STING = STING (Canis lupus familiaris, UniProt A0A8I3MH52); experiment: Dog whole blood (dWB) assay, IFNb secretion by ELISA; type: cell-based; settings: canine Interferon-beta (IFNb) ELISA, 4 h incubation at 37° C.
STING, sequence (A0A8I3MH52 1-374): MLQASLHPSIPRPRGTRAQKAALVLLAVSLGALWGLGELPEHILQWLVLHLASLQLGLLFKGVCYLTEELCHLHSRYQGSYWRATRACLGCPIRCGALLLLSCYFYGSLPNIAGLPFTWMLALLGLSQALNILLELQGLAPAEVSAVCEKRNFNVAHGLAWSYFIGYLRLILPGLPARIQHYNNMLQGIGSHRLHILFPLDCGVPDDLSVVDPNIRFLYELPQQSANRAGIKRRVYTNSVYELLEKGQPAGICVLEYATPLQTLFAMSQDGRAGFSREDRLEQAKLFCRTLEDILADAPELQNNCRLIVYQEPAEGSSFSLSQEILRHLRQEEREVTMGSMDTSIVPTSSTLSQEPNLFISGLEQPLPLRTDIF
Procedure: For the detection of STING activation in physiological environment dog whole blood (dWB) was stimulated by the cyclic dinucleotide cGAMP or a test compound. Pathway activity was monitored by measuring the IFNb production.
Compounds were delivered as 10 mM DMSO solution, diluted and transferred by using an Echo acoustic dispenser to the 384 well assay plate (Greiner #781182), pre-filled with 10 μl 1×HBSS in each well (10×HBSS (+Ca/+Mg), #14065-049, Gibco). Typically, 8 concentrations were used with the highest concentration at 10 μM in the final assay volume followed by approximately 1:4 dilution steps. DMSO concentration was set to 0.1% in the final assay volume. The 384-well assay plate contained 20 test compounds and DMSO in control and cGAMP standard wells. The dog whole blood was collected as Na-Citrate blood (e.g., 3.8% in Monovettes from Sarstedt) and kept at 4° C. overnight until use in the assay. 80 μl of the whole blood samples were transferred to each well of the 384-well assay plates filled with compound/1×HBSS. Blood plates were kept at room temperature for 60 minutes and continuous shaking with 450 rpm, covered with the lid, but not sealed. A 10×cGAMP assay solution was diluted from a 2 mM stock solution in 1×HBSS immediately before use at room temperature. 10 μl of the 10×cGAMP/HBSS were added to the high control wells, whereas HBSS only was added to all compound and low control wells. After covering assay plates with the lid, blood plates were kept for a 4 h incubation at 37° C. in the incubator, without shaking. For the detection of IFNb in dog plasma the ELISA Kit for Canine Interferon Beta (Biotrend #SEA222Ca) was used. Whole blood assay plates were centrifuged at 1000 g for 10 minutes at 8° C. […] was transferred with a 96 well pipetting robotics from the 384 well whole blood plate to the corresponding 96 well ELISA plate, pre-filled with 60 μl assay diluent in each well. Plates were sealed with microplate seals and kept at 4° C. overnight again. ELISA plates were brought to room temperature, followed by a 1 h incubation at 37° C. in the incubator. Detection Reagent A working solution was prepared by diluting Detection Reagent A 1:100 in Assay Reagent A. Liquid was then removed from the 96 well ELISA plate to add 100 μL Detection Reagent A working solution to each well. ELISA plates were covered with the plate sealer and incubated for 1 hour at 37° C. in the incubator. The 1× Wash buffer was prepared by diluting the 30× Wash Buffer Concentrate in H2O. Detection Reagent B working solution was prepared by diluting Detection Reagent B 1:100 in Assay Reagent B. The ELISA plates were washed three times with 350 μl wash buffer and afterwards inverted and blotted against absorbent paper to remove any liquid. 100 μL of Detection Reagent B working solution was added to each well of the ELISA plates, which are then covered with the plate sealer and incubated for 30 minutes at 37° C. in the incubator. After incubation the ELISA assay plates were washed five times with 350 μl wash buffer and were again inverted and blotted against absorbent paper to remove any remaining liquid. 90 μL of TMB Substrate was added to each well of the ELISA plates, which were then covered with the plate sealer and incubated for 15 minutes at 37° C. in the incubator. The reaction was stopped by adding 50 μL stop solution and absorbance was measured at 450 nm immediately.
For data evaluation and calculation, % control calculation of each well was based on the mean of high (cGAMP stimulated control) and mean of low (unstimulated control) controls by using the following standard 4 parameter logistic regression formula:
[y=(a−d)/(1+(x/c)^b)+d] • a=low value, • d=high value, • x=conc M, • c=EC50 M, • b=slope. Dog Liver Microsome (dLM) Assay

| SMILES | Delta TM (dog STING (dSTING)) [°C] | EC50 (STING) [nM] |
| --- | --- | --- |
| Cc1cccc2c(-c3cccc4nn(C)c(F)c34)nn(-c3ccc(N4CC[C@H](CC(=O)O)C4)nc3)c12 [Example 17, 2-[(3R)-1-(5-{3″-fluoro-2″,7-dimethyl-1H,2″H-[3,4″-biindazol]-1-yl}pyridin-2-yl)pyrrolidin-3-yl]acetic acid] | 35.8 | 185 |
| CC(=O)N1C[C@@H]2C[C@H]1CN2c1ccc(-n2nc(-c3cccc4nn(C)c(F)c34)c3cccc(C)c32)cn1 [Example 21, 1-[(1S,4S)-5-(5-{3″-fluoro-2″,7-dimethyl-1H,2″H-[3,4″-biindazol]-1-yl}pyridin-2-yl)-2,5-diazabicyclo[2.2.1]heptan-2-yl]ethan-1-one] | 24.9 | 1010 |
| CC(=O)N1C[C@H]2C[C@@H]1CN2c1ccc(-n2nc(-c3cccc4nn(C)c(F)c34)c3cccc(C)c32)cn1 [Example 22, 1-[(1R,4R)-5-(5-{3″-fluoro-2″,7-dimethyl-1H,2″H-[3,4″-biindazol]-1-yl}pyridin-2-yl)-2,5-diazabicyclo[2.2.1]heptan-- 2-yl]ethan1-one] | 30.4 | 244 |
| CC(=O)N1CC2CCC1CN2c1ccc(-n2nc(-c3cccc4nn(C)c(F)c34)c3cccc(C)c32)cn1 (stereo not shown) [Example 23, 1-[5-(5-{3″-fluoro-2″,7-dimethyl-1H,2″H-[3,4″-biindazol]-1-yl}pyridin-2-yl)-2,5-diazabicyclo[2.2.2]octan-2-yl]ethan-1-one] | 29.6 | 219 |
| Cc1cccc2c(-c3c(F)ccc4nn(C)cc34)nn(-c3ccc(N4CC[C@@H](CC(=O)O)C4)nc3)c12 [Example 24, 2-[(3S)-1-(5-{5″-fluoro-2″,7-dimethyl-1H,2″H-[3,4″-biindazol]-1-yl}pyridin-2-yl)pyrrolidin-3-yl]acetic acid] | 35.5 | 270 |
| Cc1cccc2c(-c3c(F)ccc4nn(C)cc34)nn(-c3ccc(N4CC[C@H](CC(=O)O)C4)nc3)c12 [Example 25, 2-[(3R)-1-(5-{5″-fluoro-2″,7-dimethyl-1H,2″H-[3,4″-biindazol]-1-yl}pyridin-2-yl)pyrrolidin-3-yl]acetic acid] | 37.0 | 283 |
| Cc1cccc2c(-c3c(F)ccc4nn(C)cc34)nn(-c3ccc(N4C[C@@H]5C[C@H]4C[C@H]5C(=O)O)nc3)c12 [Example 27-1, (1S,4R,5R)-2-(5-{5″-fluoro-2″,7-dimethyl-1H,2″H-[3,4″-biindazol]-1-yl}pyridin-2-yl)-2-azabicyclo[2.2.1]heptane-5-carboxylic acid] | 36.9 | 211 |
| Cc1cccc2c(-c3c(F)ccc4nn(C)cc34)nn(-c3ccc(N4C[C@H]5C[C@@H]4C[C@@H]5C(=O)O)nc3)c12 [Example 27-2, (1R,4S,5S)-2-(5-{5″-fluoro-2″,7-dimethyl-1H,2″H-[3,4″-biindazol]-1-yl}pyridin-2-yl)-2-azabicyclo[2.2.1]heptane-5-carboxylic acid] | 35.6 | 247 |
| CC(=O)N1CCN(c2ccc(-n3nc(-c4c(F)ccc5nn(C)cc45)c4cccc(C)c43)cn2)CC1 [Example 29, 1-[4-(5-{5″-fluoro-2″,7-dimethyl-1H,2″H-[3,4″-biindazol]-1-yl}pyridin-2-yl)piperazin-1-yl]ethan-1-one] | 32.0 | 140 |
| CC(=O)N1C[C@@H]2C[C@H]1CN2c1ccc(-n2nc(-c3c(F)ccc4nn(C)cc34)c3cccc(C)c32)cn1 [Example 30, 1-[(1S,4S)-5-(5-{5″-fluoro-2″,7-dimethyl-1H,2″H-[3,4″-biindazol]-1-yl}pyridin-2-yl)-2,5-diazabicyclo[2.2.1]heptan-2-yl]ethan-1-one] | 30.8 | 227 |
| CC(=O)N1C[C@H]2C[C@@H]1CN2c1ccc(-n2nc(-c3c(F)ccc4nn(C)cc34)c3cccc(C)c32)cn1 [Example 31, 1-[(1R,4R)-5-(5-{5″-fluoro-2″,7-dimethyl-1H,2″H-[3,4″-biindazol]-1-yl}pyridin-2-yl)-2,5-diazabicyclo[2.2.1]heptan-2-yl]ethan-1-one] | 30.5 | 101 |
| Cc1cccc2c(-c3cc(F)cc4nn(C)cc34)nn(-c3ccc(N4C[C@@H]5[C@H](C4)[C@H]5C(=O)O)nc3)c12 [Example 34, (1R,5S,6R)-3-(5-{6″-fluoro-2″,7-dimethyl-1H,2″H-[3,4″-biindazol]-1-yl}pyridin-2-yl)-3-azabicyclo[3.1.0]hexane-6-carboxylic acid] | 24.8 | 3280 |
| Cc1cccc2c(-c3c(F)cc(F)c4nn(C)cc34)nn(-c3ccc(N4CCC(C(=O)O)CC4)nc3)c12 [Example 44, 1-(5-{5″,7″-difluoro-2″,7-dimethyl-1H,2″H-[3,4″-biindazol]-1-yl}pyridin-2-yl)piperidine-4-carboxylic acid] | 34.5 | 388 |
| Cc1cccc2c(-c3c(F)cc(F)c4nn(C)cc34)nn(-c3ccc(N4CC[C@@H](CC(=O)O)C4)nc3)c12 [Example 45, 2-[(3S)-1-(5-{5″,7″-difluoro-2″,7-dimethyl-1H,2″H-[3,4″-biindazol]-1-yl}pyridin-2-yl)pyrrolidin-3-yl]acetic acid] | 33.0 | 601 |
| Cc1cccc2c(-c3c(F)cc(F)c4nn(C)cc34)nn(-c3ccc(N4CC[C@H](CC(=O)O)C4)nc3)c12 [Example 46, 2-[(3R)-1-(5-{5″,7″-difluoro-2″,7-dimethyl-1H,2″H-[3,4″-biindazol]-1-yl}pyridin-2-yl)pyrrolidin-3-yl]acetic acid] | 35.3 | 261 |
| CC(=O)N1CCN(c2ccc(-n3nc(-c4c(F)cc(F)c5nn(C)cc45)c4cccc(C)c43)cn2)CC1 [Example 49, 1-[4-(5-{5″,7″-difluoro-2″,7-dimethyl-1H,2″H-[3,4″-biindazol]-1-yl}pyridin-2-yl)piperazin-1-yl]ethan-1-one] | 30.5 | 416 |
| CC(=O)N1C[C@H]2C[C@@H]1CN2c1ccc(-n2nc(-c3c(F)cc(F)c4nn(C)cc34)c3cccc(C)c32)cn1 [Example 51, 1-[(1R,4R)-5-(5-{5″,7″-difluoro-2″,7-dimethyl-1H,2″H-[3,4″-biindazol]-1-yl}pyridin-2-yl)-2,5-diazabicyclo[2.2.1]heptan-2-yl]ethan-1-one] | 29.0 | 670 |
| Cc1cccc2c(-c3ccc(F)c4nn(C)c(F)c34)nn(-c3ccc(N4CCC(C(=O)O)CC4)nc3)c12 [Example 53, 1-(5-{3″,7″-difluoro-2″,7-dimethyl-1H,2″H-[3,4″-biindazol]-1-yl}pyridin-2-yl)piperidine-4-carboxylic acid] | 33.0 | 654 |
| Cc1cccc2c(-c3ccc(F)c4nn(C)c(F)c34)nn(-c3ccc(N4CC[C@@H](CC(=O)O)C4)nc3)c12 [Example 54, 2-[(3S)-1-(5-{3″,7″-difluoro-2″,7-dimethyl-1H,2″H-[3,4″-biindazol]-1-yl}pyridin-2-yl)pyrrolidin-3-yl]acetic acid] | 30.0 | 261 |
| Cc1cccc2c(-c3ccc(F)c4nn(C)c(F)c34)nn(-c3ccc(N4CC[C@H](CC(=O)O)C4)nc3)c12 [Example 55, 2-[(3R)-1-(5-{3″,7″-difluoro-2″,7-dimethyl-1H,2″H-[3,4″-biindazol]-1-yl}pyridin-2-yl)pyrrolidin-3-yl]acetic acid] | 34.5 | 197 |
